Measured values from BigSolDB 2.1.

COC1CCC2(CC1)NC(=O)C(c1cc(C)ccc1C)=C2O (stereo not given)
solubility (mole fraction)
Conditions | 288.15 K | 293.15 K | 298.15 K | 303.15 K | 308.15 K | 313.15 K | 318.15 K | 323.15 K | 328.15 K
in acetonitrile | 0.000317 | 0.000345 | 0.000375 | 0.000463 | 0.00057 | 0.000681 | 0.000791 | 0.000923 | 0.0011
in ethanol | 0.00255 | 0.00276 | 0.00302 | 0.00341 | 0.00392 | 0.00447 | 0.00513 | 0.00596 | 0.00681
in methanol | 0.00339 | 0.00379 | 0.00431 | 0.00473 | 0.00528 | 0.00589 | 0.00656 | 0.00735 | 0.00832
in n-propanol | 0.00252 | 0.00303 | 0.00348 | 0.00402 | 0.00453 | 0.00518 | 0.00603 | 0.00697 | 0.00799
in water | 1.96e-06 | 3.14e-06 | 4.08e-06 | 5.12e-06 | 6.15e-06 | 7.28e-06 | 8.43e-06 | 9.14e-06 | 1.05e-05
